Read-outs that look alike come from different tables or passages of the source.
Assays:
[1] = system: latent HIV‐1 provirus in resting CD4^+ T cells from HIV‐1‐infected patients; assay: Supernatant HIV‐1 RNA from resting CD4+ T cells of patients (RT–qPCR); type: cell-based; conditions: 24 h
Description: For this analysis, we purified resting CD4^+ (rCD4^+) T lymphocytes from pools of patient samples by two‐step negative selection (Appendix Table S3). […] Purified rCD4^+ T cells were treated with 30 μM of each PH compound for 24 h, and RNA from the culture supernatants was analyzed by one‐step RT–qPCR, where results are presented as copy numbers of the virion/ml. […] Based on its capability for reactivating latent provirus at multiple chromosomal locations in cell lines, its negligible toxic effect, and that it produces the most robust reactivation of virus from patient samples, we focused our subsequent analysis on this compound (Table 1).
Figure 8 Effect of PH compounds on expression of HIV provirus in latently infected cells from patients Resting CD4^+ T cells purified from patient samples (n = 18, Appendix Table S3) were treated with 30 μM of each PH compound for 24 h, and HIV‐1 RNA was measured in culture supernatants. Results are presented as HIV virions/ml (mean ± SE). LOD indicates the limit of detection, 100 copies/ml culture supernatant. TEXT PRINTED IN THE PICTURE: PMA: Supernatant HIV-1 mRNA (Copies/ml): 308929.80 (50 nM) | PH01: Supernatant HIV-1 mRNA (Copies/ml): 5348.04 (Single Concentration (30μM)) | PH02: Supernatant HIV-1 mRNA (Copies/ml): 17624.53 (Single Concentration (30μM)) | PH03: Supernatant HIV-1 mRNA (Copies/ml): 4714.11 (Single Concentration (30μM)) | PH04: Supernatant HIV-1 mRNA (Copies/ml): 7134.68 (Single Concentration (30μM)) | PH05: Supernatant HIV-1 mRNA (Copies/ml): 587.19 (Single Concentration (30μM))
HIV‐1 RNA was measured from 1 × 10^6 resting CD4^+ T lymphocytes treated with 30 μM of each compound. Extracellular RNA was isolated using the ZR Viral RNA Kit (Zymo Research) and total cellular mRNA using the RNeasy MinElute cleanup kit (Qiagen). HIV‐1 RNA concentrations were assayed in one‐step RT–qPCRs using the iTaq™ universal SYBR Green one‐step kit (BIO‐RAD) with the HIV‐1 LTR‐specific primers, AGCCGCCTAGCATTTCATC and […]. RNA copy number was calculated using a standard curve generated from titrated infections with RGH‐PGK virus (Dahabieh et al, 2013). Reproducibility of RT–qPCR analysis was confirmed using a second set of primers within HIV‐1 p24 Gag, AGCAGCCATGCAAATGTTA, […]. HIV‐1 RNA determinations were normalized to GAPDH RNA measured using the primers […] and […].

[2] = system: HIV‐1 LTR (Jurkat^Tat LTR‐luciferase cell line); assay: Jurkat^Tat LTR‐luciferase reporter assay for HIV‐1 latency reversal; type: cell-based; conditions: for EC50: Human immunodeficiency virus 1, 24 h treatment, percent activation relative to PMA; for latency‐reversing activity of PH02 analogs compared with PH02: 24 h, also in Jurkat^Tat LTR‐DsRed clones #11 and #131
Description: Activity of compounds identified for latency‐reversing activity in the primary screens was further validated by examining the effect of a single concentration (7 μM) on an alternative reporter cell line, bearing an integrated HIV‐1 reporter virus where luciferase expression is produced from the 5′ LTR, in cells constitutively expressing the viral TAT protein (Fig 2A), referred to as Jurkat^Tat LTR‐luciferase. Importantly, this cell line has the HIV‐1 reporter virus integrated at a different chromosomal location than that of the A1 J‐Lat cell line and also enables validation of provirus reactivation with a second enzymatic luciferase assay. In these assays, after 24‐h treatment we observed 10 compounds that produced significant induction of luciferase activity, including two compounds from the KD2 library, three from the CCBN library and five compounds from the DIVERSet. Compounds that produced significant effects in these secondary assays were re‐ordered from their respective suppliers and examined in more detail using the HIV‐luciferase reporter cell line. […] These five compounds represent diverse chemical structures (Fig 2G).
Figure 2 Concentration–response analysis for five selected PH compounds • A Schematic representation of the pTY‐LAI‐luciferase reporter virus used in secondary screening assays, where luciferase expression is under the control of the 5′ LTR, in cloned lines derived from Jurkat^TAT cells bearing single‐copy integrants. • B–F Luciferase activity was measured from reporter cells treated for 24 h with the indicated compound concentrations. Results are presented as percent activation relative to PMA‐treated controls. The EC50 for each compound is indicated. Mean and standard error (SE) for the results are determined from three biological replicates (n = 3) and technical duplicates. • G Illustration of chemical structures of the PH compounds.
Luciferase assays were performed in 96‐well plate format, where 100 μl of cell culture containing 1 × 10^5 luciferase reporter cells was plated per well. After the indicated time of treatment, 100 μl of luciferase assay reagent (SuperlightTM luciferase reporter Gene Assay Kit; BioAssay Systems) was added per well, and incubated for 2 min at RT, when luciferase activity was measured on a VictorTM X3 Multilabel Plate Reader. Results were presented relative to the positive control samples treated with 50 nM PMA. T‐cell activation was measured using 1 × 10^5 wild‐type Jurkat^Tat cells or PBMCs purified from healthy donors, treated as indicated. After 24 h, cells were incubated with 2.4G2 antibody to block nonspecific binding and further stained with 5 μl of anti‐human CD69 or an IgG1 isotype control antibody conjugated with PE‐Cy^Tm7. After 30‐min incubation on ice, the cells were washed twice with PBS and analyzed using a Becton Dickinson LSRII flow cytometer (BD Biosciences) to determine mean fluorescence intensity (MFI), using FlowJo software. The mean fluorescence intensity (MFI) obtained from cells stained with IgG isotype antibody control was subtracted from that from cells stained with CD69 to compensate for background (MFICD69‐MFIIgG). IL‐2 production was measured in cell culture supernatants using a human IL‐2 ELISA System (eBioscience). Jurkat^Tat clones bearing integrations of the mini‐dual HIV reporter virus, clone #11 and #131, were plated at 1 × 10^5 per well in a 96‐well plate format, treated for the indicated time, washed with 1 ml PBS, and then transferred into flow cytometry tubes, where they were fixed with freshly made 1% formaldehyde for 10 min at RT prior to analysis by flow cytometry. Results are presented as ΔMFI, where MFI obtained from parental Jurkat^Tat cells undergoing the same treated was subtracted from the MFI corresponding to each cell line; ΔMFI = (MFI compound‐treated cell line 131/11 − MFI compound‐treated WT Jurkat^Tat cells).

[3] = system: HIV‐1 LTR (Jurkat^Tat LTR‐DsRed clone #11); assay: mdHIV LTR‐DsRed reporter assay, clone #11; type: cell-based; conditions: PMA stimulation, of eGFP expressing cells
From the text: HIV‐1 tends to integrate into actively transcribed regions of the host genome (Jordan et al, 2003; Lewinski et al, 2006; Ikeda et al, 2007). Each HIV‐1‐infected patient carries viral DNA integrated at different chromosomal locations, and as we have previously shown, the site of viral integration influences how latently infected T cells respond to different stimuli (Hashemi et al, 2016). Therefore, an ideal LRA should be capable of disrupting latency in cell models carrying integrated viral reporters at multiple different regions within the host genome. To assess this capability for the PH compounds, we used two additional previously described cell lines, designated Jurkat^Tat LTR‐DsRed clones #11, and #131, that carry a mini‐dual fluorescent HIV‐1 LTR reporter (mdHIV) at different chromosomal locations. The minivirus mdHIV has two fluorescent reporters in which DsRed expression is driven from the 5′ LTR, and eGFP is constitutively expressed from an internal EIF‐1α promoter (Fig 5A). […]
Figure 5 Effect of PH02 on HIV provirus integrated at different chromosomal locations • A The effect of PH compounds was analyzed using clonal lines bearing single‐copy integrations of the mini‐dual fluorescent HIV‐1 LTR reporter, md‐HIV, where GFP is constitutively expressed from the EIF‐1α internal promoter, and DsRed from the 5′ LTR. • B Fluorescence‐activated cell sorting (FACS) of cells bearing md‐HIV provirus indicates expression of EIF‐1α‐GFP and LTR‐dsRed. Stimulation of the md‐HIV lines generally causes a shift of the fluorescence profile from GFP^+/DsRed^− toward GFP^+/DsRed^+. • C, D Clone 11 or clone 131 was treated with the indicated concentrations of PH02 (left panels) or PH02 in combination with 10 nM PEP005 (right panels) for 24 h and cells analyzed by flow cytometry. Results presented as Δmean fluorescence intensity (ΔMFI) of DsRed expression and fold increase in DsRed expression for solo and combination treatments, respectively. Mean and SE are determined from three biological replicates (n = 3) and technical duplicates. […]

HIV reservoir = conditions: cited from earlier work

Row | SMILES | Supernatant HIV-1 mRNA ([1]; 30 μM, LOD 100 copies/ml) | EC50 [2] | other results
1 | Cn1c(C=Cc2c[nH]c3ccccc23)nc2ccccc2c1=O [PH01, 2‐[2‐(1H‐indol‐3‐yl)vinyl]‐3‐methyl‐4(3H)‐quinazolinone] | 5348.04 Copies/ml | 141 nM | –
2 | COc1ccccc1N(/C=C1\Sc2ccccc2C1=O)C(C)=O [PH02a, N-(2-methoxyphenyl)-N-[(3-oxo-1-benzothien-2(3H)-ylidene)methyl]acetamide] | – | – | latency‐reversing activity of PH02 analogs compared with PH02 [2]: significant reduction
3 | COc1ccccc1N(C=O)/C=C1\Sc2ccccc2C1=O [PH02b, (2-methoxyphenyl)[(3-oxo-1-benzothien-2(3H)-ylidene)methyl]formamide] | – | – | latency‐reversing activity of PH02 analogs compared with PH02 [2]: significant reduction
4 | Cl.Nc1ccc(-c2ccc3ccccc3n2)cc1 [PH03, 2‐(4‐aminophenyl)quinoline hydrochloride] | 4714.11 Copies/ml | 1250 nM | –
5 | Cc1cc(I)cnc1NC(=S)NC(=O)c1ccco1 [PH04, N‐{[(5‐iodo‐3‐methyl‐2‐pyridinyl)amino]carbonothioyl}‐2‐furamide] | 7134.68 Copies/ml | 2560 nM | –
6 | COc1cccc(-n2nnc(C(=O)Nc3ccc(C)cc3)c2C)c1 [PH05, 1‐(3‐methoxyphenyl)‐5‐methyl‐N‐(4‐methylphenyl)‐1H‐1,2,3‐triazole‐4‐carboxamide] | 587.19 Copies/ml | 5900 nM | –
7 | CCCCCCCCCCCCCC(=O)O[C@@H]1[C@@H](C)[C@@]2(O)[C@@H](C=C(CO)C[C@]3(O)C(=O)C(C)=C[C@@H]23)[C@@H]2C(C)(C)[C@]12OC(C)=O [PMA, phorbol 12‐myristate 13‐acetate, reference compound] | – | – | cells producing dsRed expression upon stimulation [3]: ~ 40%; Supernatant HIV-1 mRNA ([1]; 50 nM, positive control): 308929.80 Copies/ml
8 | Cc1[nH]c2ccccc2c1CCNCc1ccc(/C=C/C(=O)NO)cc1 [Panobinostat] | – | – | reduction in the HIV reservoir (HIV reservoir; 20 mg three times a week every other week for 8 weeks, ref Rasmussen et al, 2014): did not produce a reduction in the HIV reservoir
9 | O=C(CCCCCCC(=O)Nc1ccccc1)NO [Vorinostat, suberoylanilide hydroxamic acid] | – | – | reduction in the HIV reservoir (HIV reservoir; 400 mg daily for 14 days or 3 days a week for 8 weeks, ref Archin et al, 2014, Elliott et al): did not produce a reduction in the HIV reservoir
